{
  "source": "patent US11458123B2",
  "about": "(Arvinas, Inc., priority 2016, dated 2022)",
  "data": [
    {"tested_on": "tau protein", "assay": "Tau protein in vitro degradation assay (Western blot, Tau-13 antibody)", "assay_type": "cell-based, human", "settings": "SK-N-SH cells; 72 hours of incubation; tested at 300 nM, 100 nM, 33 nM and 11 nM; Western blot, Tau-13 antibody", "outline": "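SK-N-SH cells, seeded ≥18 h beforehand, were incubated 72 h with tau PROTACs at 1000, 300 and 100 nM or at 300, 100, 33 and 11 nM. Lysates in protease-inhibitor buffer were resolved by SDS-PAGE; tau quantified by Western blot with Tau-13 antibody recognising all human tau forms.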", "values": [
      {"compound": "Cn1c2ccncc2c2ccc(-c3cnc(O[C@H]4C[C@H](Oc5ccc(C#CCN6CC(Oc7ccc8c(c7)C(=O)N(C7CCC(=O)NC7=O)C8=O)C6)nc5)C4)c(C(F)(F)F)c3)cc21", "note": "(stereo partly shown) [Compound 142, 2-(2,6-dioxopiperidin-3-yl)-5-((1-(3-(5-((1r,3r)-3-((5-(5-methyl-5H-pyrido[4,3-b]indol-7-yl)-3-(trifluoromethyl)pyridin-2-yl)oxy)cyclobutoxy)pyridin-2-yl)prop-2-yn-1-yl)azetidin-3-yl)oxy)isoindoline-1,3-dione]", "Degradation activity* (highest amount of degradation observed at any dosage; tau protein remaining)": "C (>80% tau protein remaining after 72 hours of incubation with the test compound)"},
      {"compound": "Cn1c2ccncc2c2ccc(-c3ccc(OCCOCCOCCOCCOCCOc4ccc5c(c4)C(=O)N(C4CCC(=O)NC4=O)C5=O)nc3C(F)(F)F)cc21", "note": "(stereo not shown) [Compound 143, 2-(2,6-dioxopiperidin-3-yl)-5-((14-((5-(5-methyl-5H-pyrido[4,3-b]indol-7-yl)-6-(trifluoromethyl)pyridin-2-yl)oxy)-3,6,9,12-tetraoxatetradecyl)oxy)isoindoline-1,3-dione]", "Degradation activity* (highest amount of degradation observed at any dosage; tau protein remaining)": "B (≤80% and >50% tau protein remaining after 72 hours of incubation with the test compound)"},
      {"compound": "Cn1c2ccncc2c2ccc(-c3ccc(O[C@H]4C[C@@H](Oc5ccc(C#CCCCCOc6ccc7c(c6)C(=O)N(C6CCC(=O)NC6=O)C7=O)cn5)C4)nc3)cc21", "note": "(stereo partly shown) [Compound 144, 2-(2,6-dioxopiperidin-3-yl)-5-(6-(6-((1s,3s)-3-(5-(5-methyl-5H-pyrido[4,3-b]indol-7-yl)pyridin-2-yloxy)cyclobutoxy)pyridin-3-yl)hex-5-ynyloxy)isoindoline-1,3-dione]", "Degradation activity* (highest amount of degradation observed at any dosage; tau protein remaining)": "C (>80% tau protein remaining after 72 hours of incubation with the test compound)"},
      {"compound": "Cn1c2ccncc2c2ccc(-c3ccc(O[C@H]4C[C@@H](Oc5ccc(CCCCCCOc6ccc7c(c6)C(=O)N(C6CCC(=O)NC6=O)C7=O)cn5)C4)nc3)cc21", "note": "(stereo partly shown) [Compound 145, 2-(2,6-dioxopiperidin-3-yl)-5-(6-(6-((1s,3s)-3-(5-(5-methyl-5H-pyrido[4,3-b]indol-7-yl)pyridin-2-yloxy)cyclobutoxy)pyridin-3-yl)hexyloxy)isoindoline-1,3-dione]", "Degradation activity* (highest amount of degradation observed at any dosage; tau protein remaining)": "C (>80% tau protein remaining after 72 hours of incubation with the test compound)"},
      {"compound": "Cn1c2ccncc2c2ccc(-c3ccc(OCCCOc4ccc(C#CCCCCOc5ccc6c(c5)C(=O)N(C5CCC(=O)NC5=O)C6=O)cn4)nc3)cc21", "note": "(stereo not shown) [Compound 146, 2-(2,6-dioxopiperidin-3-yl)-5-((6-(6-(3-((5-(5-methyl-5H-pyrido[4,3-b]indol-7-yl)pyridin-2-yl)oxy)propoxy)pyridin-3-yl)hex-5-yn-1-yl)oxy)isoindoline-1,3-dione]", "Degradation activity* (highest amount of degradation observed at any dosage; tau protein remaining)": "C (>80% tau protein remaining after 72 hours of incubation with the test compound)"},
      {"compound": "Cn1c2ccncc2c2ccc(-c3ccc(O[C@H]4C[C@H](Oc5ccc(CCCCCCOc6ccc7c(c6)C(=O)N(C6CCC(=O)NC6=O)C7=O)cc5)C4)nc3)cc21", "note": "(stereo partly shown) [Compound 147, 2-(2,6-dioxopiperidin-3-yl)-5-((6-(4-((1r,3r)-3-((5-(5-methyl-5H-pyrido[4,3-b]indol-7-yl)pyridin-2-yl)oxy)cyclobutoxy)phenyl)hexyl)oxy)isoindoline-1,3-dione]", "Degradation activity* (highest amount of degradation observed at any dosage; tau protein remaining)": "C (>80% tau protein remaining after 72 hours of incubation with the test compound)"},
      {"compound": "O=C1CCC(N2C(=O)c3ccc(N4CC(OCCCOCCCO[C@H]5C[C@H](Oc6ncc(-c7ccc8c(c7)[nH]c7ccncc78)cc6C(F)(F)F)C5)C4)cc3C2=O)C(=O)N1", "note": "(stereo partly shown) [Compound 148, 5-(3-(3-(3-((1r,3r)-3-((5-(5H-pyrido[4,3-b]indol-7-yl)-3-(trifluoromethyl)pyridin-2-yl)oxy)cyclobutoxy)propoxy)propoxy)azetidin-1-yl)-2-(2,6-dioxopiperidin-3-yl)isoindoline-1,3-dione]", "Degradation activity* (highest amount of degradation observed at any dosage; tau protein remaining)": "B (≤80% and >50% tau protein remaining after 72 hours of incubation with the test compound)"}
    ]}
  ]
}
